Data taken from ChEMBL document CHEMBL1141039, “Hepatitis C virus NS3-4A serine protease inhibitors: SAR of P'2 moiety with improved potency” (Bioorg Med Chem Lett, 2005).
pKi: −log10 of the molar value. Numbered stars: 1 amine (or outer) side, 2 acyl side, 3 side chain; on linkers, the order of the positions; unused ones are H or OH. Square brackets hold non-standard residues; d marks the D form. Peptide text beside a SMILES is read from it. * marks the point of attachment. Gly(piperidin-4-yl) = N[C@H](C(=O)O)C1CCNCC1; 2Nal = N[C@@H](Cc1ccc2ccccc2c1)C(=O)O; Isobutyloxycarbonyl = CC(C)COC(=O)*; Gly(cPent) = N[C@H](C(=O)O)C1CCCC1; X1 = CCCC(N[*:1])C(=O)C(=O)[*:2]; hPhe = N[C@@H](CCc1ccccc1)C(=O)O; Aad = N[C@@H](CCCC(=O)O)C(=O)O; Cha = N[C@@H](CC1CCCCC1)C(=O)O; Chg = N[C@H](C(=O)O)C1CCCCC1; Phg = N[C@H](C(=O)O)c1ccccc1; Tle = CC(C)(C)[C@H](N)C(=O)O; hSer = N[C@@H](CCO)C(=O)O; Nle = CCCC[C@H](N)C(=O)O; Boc = CC(C)(C)OC(=O)*; OBn = c1ccc(CO*)cc1; Bn = c1ccc(C*)cc1; OtBu = CC(C)(C)O*; tBu = CC(C)(C)*

Target: NS3 (Hepatitis C virus, UniProt A3EZJ3)
Assay: Inhibitory activity against Hepatitis C virus NS3 serine protease in continuous spectrophotometric assay
Design: species or system Hepacivirus hominis

Chain of NS3 (A3EZJ3 whole entry): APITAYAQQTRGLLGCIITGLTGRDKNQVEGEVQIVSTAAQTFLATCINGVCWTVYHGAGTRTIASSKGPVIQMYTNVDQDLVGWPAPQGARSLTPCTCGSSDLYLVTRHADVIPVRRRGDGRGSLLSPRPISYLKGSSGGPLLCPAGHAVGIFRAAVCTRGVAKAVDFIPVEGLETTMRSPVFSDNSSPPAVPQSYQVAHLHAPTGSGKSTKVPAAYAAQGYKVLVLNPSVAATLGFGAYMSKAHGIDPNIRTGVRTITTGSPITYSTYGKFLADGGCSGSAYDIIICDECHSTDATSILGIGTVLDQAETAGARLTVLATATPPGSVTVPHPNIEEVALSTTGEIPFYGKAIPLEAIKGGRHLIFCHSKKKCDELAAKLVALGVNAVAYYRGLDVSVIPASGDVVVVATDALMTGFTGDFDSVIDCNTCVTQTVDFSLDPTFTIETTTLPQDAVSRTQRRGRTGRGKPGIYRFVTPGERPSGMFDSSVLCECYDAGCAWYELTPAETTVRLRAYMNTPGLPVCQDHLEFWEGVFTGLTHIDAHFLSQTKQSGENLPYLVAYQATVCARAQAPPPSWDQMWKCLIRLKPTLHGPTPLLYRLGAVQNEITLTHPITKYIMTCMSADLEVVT

| Structure (SMILES) | pKi |
| --- | --- |
| CCCC(NC(=O)[C@H](CC(C)C)NC(=O)[C@@H](NC(=O)OCC(C)C)C1CCCCC1)C(=O)C(=O)NCC(=O)N[C@H](C(=O)O)C1CCN(C(=O)OC(C)(C)C)CC1 (some centres not stated) | 5.48 |
| CCCC(NC(=O)[C@@H]1CCCN1C(=O)[C@@H](NC(=O)OC(C)(C)C)C1CCCCC1)C(=O)C(=O)NCC(=O)NCc1ccccc1 (some centres not stated) | 4.35 |
| CCCC(NC(=O)[C@H](CC(C)C)NC(=O)[C@@H](NC(=O)OC(C)(C)C)C1CCCCC1)C(=O)C(=O)NCC(=O)N[C@H](C(=O)OCc1ccccc1)c1ccccc1 (some centres not stated) (Boc-[Chg]L[X1]G[Phg]-OBn) | 6.22 |
| CCCC(NC(=O)[C@H](CC(C)C)NC(=O)[C@@H](NC(=O)OC(C)(C)C)C1CCCCC1)C(=O)C(=O)NCC(=O)N[C@H](C(=O)O)c1ccccc1 (some centres not stated) (Boc-[Chg]L[X1]G[Phg]-OH) | 7.01 |
| CCCC(NC(=O)[C@@H]1CCCN1C(=O)[C@@H](NC(=O)OCC(C)C)C(C)C)C(=O)C(=O)NCC(=O)N[C@@H](CC(=O)OC)C(=O)OC (some centres not stated) (Isobutyloxycarbonyl-VP[X1]GD(OMe)-OMe) | 4.26 |
| CCCC(NC(=O)[C@@H]1CCCN1C(=O)[C@@H](NC(=O)OCC(C)C)C(C)C)C(=O)C(=O)NCC(=O)N[C@@H](Cc1ccccc1)C(N)=O (some centres not stated) (Isobutyloxycarbonyl-VP[X1]GF-NH2) | 4.82 |
| CCCC(NC(=O)[C@@H]1CCCN1C(=O)[C@@H](NC(=O)OCC(C)C)C(C)C)C(=O)C(=O)NCC(=O)N[C@H](C(=O)O)[C@@H](C)CC (some centres not stated) (Isobutyloxycarbonyl-VP[X1]GI-OH) | 4.82 |
| CCCC(NC(=O)[C@@H]1CCCN1C(=O)[C@@H](NC(=O)OCC(C)C)C(C)C)C(=O)C(=O)NCC(=O)N[C@@H](CCCCN)C(N)=O (some centres not stated) (Isobutyloxycarbonyl-VP[X1]GK-NH2) | 4.09 |
| CCCC(NC(=O)[C@@H]1CCCN1C(=O)[C@@H](NC(=O)OCC(C)C)C(C)C)C(=O)C(=O)NCC(=O)N[C@@H](CC(C)C)C(N)=O (some centres not stated) (Isobutyloxycarbonyl-VP[X1]GL-NH2) | 4.80 |
| CCCC(NC(=O)[C@@H]1CCCN1C(=O)[C@@H](NC(=O)OCC(C)C)C(C)C)C(=O)C(=O)NCC(=O)N[C@@H](COCc1ccccc1)C(N)=O (some centres not stated) (Isobutyloxycarbonyl-VP[X1]GS(Bn)-NH2) | 5.46 |
| CCCC(NC(=O)[C@@H]1CCCN1C(=O)[C@@H](NC(=O)OCC(C)C)C(C)C)C(=O)C(=O)NCC(=O)N[C@@H](CCCC(=O)O)C(N)=O (some centres not stated) (Isobutyloxycarbonyl-VP[X1]G[Aad]-NH2) | 4.74 |
| CCCC(NC(=O)[C@@H]1CCCN1C(=O)[C@@H](NC(=O)OCC(C)C)C(C)C)C(=O)C(=O)NCC(=O)N[C@H](C(N)=O)C1CCCCC1 (some centres not stated) (Isobutyloxycarbonyl-VP[X1]G[Chg]-NH2) | 5.59 |
| CCCC(NC(=O)[C@@H]1CCCN1C(=O)[C@@H](NC(=O)OCC(C)C)C(C)C)C(=O)C(=O)NCC(=O)N[C@@H](CCc1ccccc1)C(N)=O (some centres not stated) (Isobutyloxycarbonyl-VP[X1]G[hPhe]-NH2) | 5.17 |
| CCCC(NC(=O)[C@H](CC(C)C)NC(=O)[C@@H](NC(=O)OCC(C)C)C1CCCCC1)C(=O)C(=O)NCC(=O)N[C@@H](COC(C)(C)C)C(N)=O (some centres not stated) (Isobutyloxycarbonyl-[Chg]L[X1]GS(tBu)-NH2) | 6.34 |
| CCCC(NC(=O)[C@H](CC(C)C)NC(=O)[C@@H](NC(=O)OCC(C)C)C1CCCCC1)C(=O)C(=O)NCC(=O)N[C@H](C(=O)O)C1CCCC1 (some centres not stated) (Isobutyloxycarbonyl-[Chg]L[X1]G[Gly(cPent)]-OH) | 6.48 |
| CCCC(NC(=O)[C@H](CC(C)C)NC(=O)[C@@H](NC(=O)OCC(C)C)C1CCCCC1)C(=O)C(=O)NCC(=O)N[C@H](C(=O)O)C1CCNCC1 (some centres not stated) (Isobutyloxycarbonyl-[Chg]L[X1]G[Gly(piperidin-4-yl)]-OH) | 5.19 |
| CCCC[C@H](NC(=O)CNC(=O)C(=O)C(CCC)NC(=O)[C@H](CC(C)C)NC(=O)[C@@H](NC(=O)OCC(C)C)C1CCCCC1)C(N)=O (some centres not stated) (Isobutyloxycarbonyl-[Chg]L[X1]G[Nle]-NH2) | 6.55 |
| CCCC(NC(=O)[C@H](CC(C)C)NC(=O)[C@@H](NC(=O)OCC(C)C)C1CCCCC1)C(=O)C(=O)NCC(=O)N[C@H](C(=O)O)c1ccccc1 (some centres not stated) (Isobutyloxycarbonyl-[Chg]L[X1]G[Phg]-OH) | 6.92 |
| CCCC(NC(=O)[C@H](CC(C)C)NC(=O)[C@@H](NC(=O)OCC(C)C)C1CCCCC1)C(=O)C(=O)NCC(=O)N[C@H](C(=O)OC(C)(C)C)c1ccccc1 (some centres not stated) (Isobutyloxycarbonyl-[Chg]L[X1]G[Phg]-OtBu) | 6.19 |

Further lines, results first:

| pKi | Structure (SMILES) |
| --- | --- |
| 4.09 | CCCC(NC(=O)[C@H](CC(C)C)NC(=O)[C@@H](NC(=O)OC(C)(C)C)C1CCCCC1)C(=O)C(=O)NCC(=O)NCc1ccccc1 (some centres not stated) |
| < 4.00 | CCCC(NC(=O)[C@@H]1CCCN1C(=O)[C@@H](NC(=O)OCC(C)C)C(C)C)C(=O)C(=O)NCC(=O)N[C@@H](CC(=O)O)C(=O)O (some centres not stated) (Isobutyloxycarbonyl-VP[X1]GD-OH) |
| 4.70 | CCCC(NC(=O)[C@@H]1CCCN1C(=O)[C@@H](NC(=O)OCC(C)C)C(C)C)C(=O)C(=O)NCC(=O)N[C@@H](CCC(=O)OCC)C(=O)OC (some centres not stated) (Isobutyloxycarbonyl-VP[X1]GE(OEt)-OMe) |
| < 4.00 | CCCC(NC(=O)[C@@H]1CCCN1C(=O)[C@@H](NC(=O)OCC(C)C)C(C)C)C(=O)C(=O)NCC(=O)N[C@@H](CCC(=O)O)C(=O)O (some centres not stated) (Isobutyloxycarbonyl-VP[X1]GE-OH) |
| 4.82 | CCCC(NC(=O)[C@@H]1CCCN1C(=O)[C@@H](NC(=O)OCC(C)C)C(C)C)C(=O)C(=O)NCC(=O)N[C@H](C(=O)OC)[C@@H](C)CC (some centres not stated) (Isobutyloxycarbonyl-VP[X1]GI-OMe) |
| 4.92 | CCCC(NC(=O)[C@@H]1CCCN1C(=O)[C@@H](NC(=O)OCC(C)C)C(C)C)C(=O)C(=O)NCC(=O)N[C@@H](Cc1ccc2ccccc2c1)C(N)=O (some centres not stated) (Isobutyloxycarbonyl-VP[X1]G[2Nal]-NH2) |
| 5.10 | CCCC(NC(=O)[C@@H]1CCCN1C(=O)[C@@H](NC(=O)OCC(C)C)C(C)C)C(=O)C(=O)NCC(=O)N[C@@H](CC1CCCCC1)C(N)=O (some centres not stated) (Isobutyloxycarbonyl-VP[X1]G[Cha]-NH2) |
| 5.68 | CCCC(NC(=O)[C@@H]1CCCN1C(=O)[C@@H](NC(=O)OCC(C)C)C(C)C)C(=O)C(=O)NCC(=O)N[C@H](C(N)=O)c1ccccc1 (some centres not stated) (Isobutyloxycarbonyl-VP[X1]G[Phg]-NH2) |
| 4.28 | CCCC(NC(=O)[C@@H]1CCCN1C(=O)[C@@H](NC(=O)OCC(C)C)C(C)C)C(=O)C(=O)NCC(=O)N[C@H](C(N)=O)C(C)(C)C (some centres not stated) (Isobutyloxycarbonyl-VP[X1]G[Tle]-NH2) |
| 3.95 | CCCC(NC(=O)[C@@H]1CCCN1C(=O)[C@@H](NC(=O)OCC(C)C)C(C)C)C(=O)C(=O)NCC(=O)N[C@@H](CCO)C(N)=O (some centres not stated) (Isobutyloxycarbonyl-VP[X1]G[hSer]-NH2) |
| 5.08 | CCCC(NC(=O)[C@H](CC(C)C)NC(=O)[C@@H](NC(=O)OCC(C)C)C1CCCCC1)C(=O)C(=O)NCC(=O)N[C@@H](CC(=O)O)C(N)=O (some centres not stated) (Isobutyloxycarbonyl-[Chg]L[X1]GD-NH2) |
| 5.59 | CCCC(NC(=O)[C@H](CC(C)C)NC(=O)[C@@H](NC(=O)OCC(C)C)C1CCCCC1)C(=O)C(=O)NCC(=O)N[C@H](C(N)=O)C(C)C (some centres not stated) (Isobutyloxycarbonyl-[Chg]L[X1]GV-NH2) |
| 6.44 | CCCC(NC(=O)[C@@H]1CCCN1C(=O)[C@@H](NC(=O)OCC(C)C)C1CCCCC1)C(=O)C(=O)NCC(=O)N[C@H](C(N)=O)c1ccccc1 (some centres not stated) (Isobutyloxycarbonyl-[Chg]P[X1]G[Phg]-NH2) |
